Data as given in patent publication EP1087941B9, “THIOLESTERS AND USES THEREOF” (THE UNITED STATES OF AMERICA, as represented by THE …, priority 1998, dated 1999).
Read-outs that look alike come from different tables or passages of the source.

How the values were obtained:
HIV-1 virus = experiment: Virus inactivation determined by PCR assay for intracellularly synthesized viral RNA; assay type: cell-based
Text: The thiolester-treated virions can also be tested for infectivity. The virions are suspended in media (rather than solubilized) and added to target cells. The cultures are then examined to determine whether the virions are still active. To determine whether the treated virus particles are active, the cells are monitored for the presence of intracellularly-synthesized viral RNA using, for example, the polymerase chain reaction (PCR) (Rice (1993) Proc. Natl. Acad. Sci. USA 90:9721; Turpin (1996) J. Virol. 70:6180). Alternatively, cytoprotection assays can be used (Weislow (1993) J. Natl. Cancer Inst. 81:577).
An example of a compound which can be used as a control in the gel mobility shift assay is azodicarbonamide (ADA), a compound which is commercially available from the Aldrich Chemical Company (Milwaukee, WI).

[1] = target: T1, Virion-associated NCp7 proteins from cell-free HIV-1MN (Human immunodeficiency virus type 1 group M subtype B, UniProt P05888); experiment: Intravirion NCp7 cross-linking, non-reducing Western blotting
T1 construct: an attack on the mature NCp7 retroviral zinc fingers in the cell-free virus; endogenous in cells
Procedure: The interaction of zinc finger inhibitors, such as the thiolesters of the invention, with cell-free virus can result in modification of intravirion NCp7 protein and loss of infectivity. Virion-associated NCp7 proteins from cell-free HIV-1MN were treated with thiolester compounds 44 and 45. They were also evaluated by non-reducing Western blotting using HIV-1 NCp7-specific antibodies. […] Cross-linking by compound 45 was due to formation of intermolecular disulfide bonds because reduction with 2-mercaptoethanol (β-ME) completely reversed the gel retardation.
Virion cross linking was performed as described by Rice (1995) Science 270:1194-1197 and Turpin (1997) Antiviral Chem. Chemother. 8:60-67. Briefly, highly purified HIV-1 MN (11.8 µg total protein) was incubated for 2 hour with concentrations of compound. Virions were concentrated and residual compound was removed by centrifugation (18,000 x g, 1 h, 4°C). The viral pellet was solubilized in 0.5 M Tris-HCl,(pH 6.8), 50% glycerol, 8% SDS and 0.4% bromophenol blue and proteins resolved by Western blotting. Western blotting to detect the expression of HIV-1 proteins in U1 cells or virus pellets for virion cross-linking experiments was carried out as described by Turpin (1996) J. Virol. 70:6180-6189. Briefly, 50 µg of total cellular protein for U1 experiments or the total virion pellet (11.8 µg total viral protein) for NCp7 cross linking studies was resolved on 4 to 20% polyacrylamide gels in SDS with Tris-Glycine (Novex, San Diego CA). Samples for reduced gels were boiled for 5 min in the presence of 5% β-ME prior to loading. Resolved proteins were electroblotted on to polyvinylidene difluoride (PVDF) membranes, and HIV-1 specific proteins were detected using a mixture of goat anti- HIV-1 NCp7 and p24 or anti-NCp7 for virion proteins alone (a kind gift of L. E. Henderson, AIDS Vaccine Program NCI-FCRDC, Frederick, MD). Western blots were developed using standard chemiluminescence methodologies, as produced and described by Dupont-NEN, Wilmington, DE.
Purified concentrated retrovirus and antisera against the purified NC protein of the virus can be used to test the ability of a specific compound to penetrate the virus and react with the NC protein by forming disulfide complexes in the core of the virus. Compound are mixed with the whole retrovirus under reaction conditions appropriate for the compound. The virus is then removed from the reagent by centrifugation and disrupted in, e.g., standard SDS-PAGE sample buffer with (reduced) and without (non-reduced) 2-mercaptoethanol. […] Thus, compounds of interest (i.e., those which cause cross-linking), including the thiolesters of the invention, reduce the amount of monomeric zinc finger protein detected.

HIV-1RF = experiment: XTT cytoprotection assay (antiviral activity); assay type: cell-based
Text: (§1) One exemplary means to determine antiviral activity is with CEM-SS cells and virus (e.g., HIV-1RF) (MOI = 0.01) using the XTT (2,3-bis[2-methoxy- 4-nitro-5-sulfophenyl] -5- [(phenylamino)carbonyl]-2H-tetrazolium hydroxide) cytoprotection assay, as described by Rice (1993) PNAS 90:9721-9724, and Rice (1997) Antimicrob. Agents Chemother. 41:419-426. Briefly, cells are infected with HIV-1RF (or other virus to be tested) in the presence of various dilutions of test compounds (thiolesters and controls). The cultures are incubated for seven days. During this time control cultures without protective compounds (i.e., compounds with anti-viral activity) replicate virus, induce syncytia, and result in about 90% cell death. The cell death is measured by XTT dye reduction. XTT is a soluble tetrazolimn dye that measures mitochondrial energy output, similar to MTT. Positive controls using dextran sulfate (an attachment inhibitor) or 3'-Azido -2'-3'-dideoxythymidine, AZT (a reverse transcriptase inhibitor) are added to each assay. Individual assays are done in duplicate using a sister plate method.
(§2) Effective antiviral concentrations providing 50% cytoprotection (EC50), and cellular growth inhibitory concentrations causing 50% cytotoxicity (IC50) are calculated.

[2] = target: T2, recombinant HIV-1 NCp7 protein (Human immunodeficiency virus type 1 group M subtype B, UniProt P03347); experiment: Trp37 zinc finger fluorescence (zinc ejection) assay; assay type: biochemical; conditions: for Zinc Finger Reactivity RFU/ min: average decrease in relative fluorescence units over 30 min
T2 construct: within the nucleocapsid p7 (NCp7) protein portion of the polyprotein
Procedure: Zinc finger reactivity was measured using a Zn specific fluorochrome, TSQ, N-(6-methoxy-8-quinolyl) -p-toluenesulfonamide, assay or a Trp37 zinc finger fluorescence assay. Fluorescent measurements of the Trp37 residue in the C-terminal finger of recombinant HIV-1 NCp7 protein were performed as described by Rice (1995) Science 270:1194-1197; Rice (1997) Antimicrob. Agents Chemother. 41:419-426. Measurement of Zn ejection from both fingers was measured using the Zn-selective fluorchrome probe TSQ (Molecular Probes, Eugene OR) as described by Rice (1996) J. Med. Chem 39:3606-3616. Measurement of the ability of NCp7 to bind to a DNA oligomer, a 44 mer: […] (SEQ ID NO:1), analogous to the HIV-1 RNA packaging site was carried out as described by Huang (1998) J. Med. Chem. 41:1371-1381, see also, Rossio (1998) HIV Pathogenesis and Treatment: Keystone Symposium on Molecular and Cellular Biology, Abstract # 4082. Briefly, 50 nM NCp7 was treated with test compounds for 1 hour at RT in […] buffer containing 10% glycerol and 50 mM Tris-HCl (pH 7.5). Labeled oligomer (0.1 picomole, end labeled [^32P]) was added in an equal volume of buffer containing 10% glycerol, 50 mM Tris-HCl (pH 7.5), 400 mM KCl and 40 mM MgCl2. The reaction was continued for 15 min at room temperature, and a total of […] (or 1/4 of the total reaction volume) was separated on nondenaturing 4.5% polyacrylamide gels in 0.5X Tris-Borate electrophoresis buffer. NCp7-oligomer complexes were visualized by autoradiography.
Changes in the intrinsic fluorescence of aromatic protein moieties are commonly used to monitor a reaction which involves a change in protein conformation. In the present invention, fluorescence can be used to monitor the loss of metal ion from a zinc finger, e.g., the loss of zinc from a CCHC retroviral zinc finger protein, after contact with a thiolester of the invention. The intrinsic fluorescence of Trp 37 in the second zinc finger of HIV-1 NC protein has been used to monitor nucleic acid binding and conformation of the zinc finger complex (see, Summers (1992) supra).
Zinc ejection is measured by the ability of compounds to chemically attack the cysteines in purified NCp7 protein resulting in a loss of fluorescence due to the movement of the tryptophan 37 residue from an exposed to an internal position on the protein. Zinc ejection is measured and expressed as either percent decrease in total fluorescence or decrease in relative fluorescence units per min during a 30 min assay (RFU/min). A thiolester is considered within the scope of the invention if any amount of zinc ejection is detected. For example, compound 50 has a zinc ejection rate of 0.86 RFU/min.

CEM-SS cells = experiment: cells; assay type: cell-based; conditions: Homo sapiens, CEM-SS
Text: as §1, §2

[3] = Human immunodeficiency virus 1, read-out: Antiviral Activity EC50
[4] = read-out: Antiviral Activity IC50%
[5] = read-out: IC50 / cellular toxicity
[6] = Human immunodeficiency virus 1, read-out: Antiviral Activity EC50%
[7] = read-out: Antiviral Activity IC50

Compound | IC50 (CEM-SS cells; [4]) [µM] | EC50 (HIV-1RF; [6]) [µM] | Zinc Finger Reactivity RFU/ min ([2]; Table 6) [RFU/ min] | IC50 (CEM-SS cells; [7]) [µM] | further results
NC(=O)N=NC(N)=O [ADA, azodicarbonamide] |  |  |  |  | inactivation of HIV-1 virus (HIV-1 virus): inactivates HIV-1 virus
Cc1cn([C@H]2C[C@H](N=[N+]=[N-])[C@@H](CO)O2)c(=O)[nH]c1=O [AZT, 3'-Azido-2'-3'-dideoxythymidine, reference compound] |  |  |  |  | intravirion NCp7 cross-linking [1]: failed to cross-link NCp7
CC(=O)NS(=O)(=O)c1ccc(NC(=O)c2ccccc2SC(C)=O)cc1 [Compound 40] | 56.7 |  |  |  | EC50 (HIV-1RF; [3]): 2.8 µM; Zinc Finger Reactivity RFU/ min ([2]; Table 5): 4.2 RFU/ min; IC50 (CEM-SS cells; [5]): ~50 µM
CC(=O)NS(=O)(=O)c1ccc(NC(=O)c2ccccc2SC(=O)c2ccccc2)cc1 [Compound 41] | 45.7 |  |  |  | EC50 (HIV-1RF; [3]): 2.6 µM; Zinc Finger Reactivity RFU/ min ([2]; Table 5): 2.2 RFU/ min; IC50 (CEM-SS cells; [5]): ~50 µM
COc1ccc(C(=O)Sc2ccccc2C(=O)Nc2ccc(S(=O)(=O)NC(C)=O)cc2)cc1 [Compound 42] | 43.7 |  |  |  | EC50 (HIV-1RF; [3]): 2.8 µM; Zinc Finger Reactivity RFU/ min ([2]; Table 5): 3.5 RFU/ min; IC50 (CEM-SS cells; [5]): ~50 µM
O=C(CCCCBr)Sc1ccccc1C(=O)Nc1ccc(S(=O)(=O)c2ccc([N+](=O)[O-])cc2)cc1 [Compound 46] |  | 1.6 | 1 | 21.7 | 
NS(=O)(=O)c1ccc(CNC(=O)c2ccccc2SC(=O)CCCC[n+]2ccccc2)cc1 [Compound 48] |  | 1.1 | 1.4 | 55 | IC50 (CEM-SS cells; [5]): 55 µM
O=C(CCCCBr)Sc1ccccc1C(=O)Nc1ccc(S(=O)(=O)c2ccc(NS(=O)(=O)Cc3ccccc3[N+](=O)[O-])cc2)cc1 [Compound 49] |  | > 316 | 1.9 | > 316 | 
O=C(CCCC[n+]1ccccc1)Sc1ccccc1C(=O)Nc1ccc(S(=O)(=O)c2ccc(NS(=O)(=O)Cc3ccccc3[N+](=O)[O-])cc2)cc1 [Compound 50] |  | 2.9 | 0.86 | > 316 | zinc finger reactivity / zinc ejection rate [2]: 0.86 RFU/min
CC(=O)Nc1ccc(S(=O)(=O)c2ccc(NC(=O)c3ccccc3SC(=O)CCCC[n+]3ccccc3)cc2)cc1 [Compound 51] |  | 4.6 | 1.7 | 288 | 
CC(=O)Nc1cccc(S(=O)(=O)c2cccc(NC(=O)c3ccccc3SC(=O)CCCC[n+]3ccccc3)c2)c1 [Compound 52] |  | 4.9 | 1.1 | 205 | 
CC(=O)NS(=O)(=O)c1ccc(NC(=O)c2ccccc2SC(=O)CCC[n+]2ccccc2)cc1 [Compound 54] | 175 | 10.1 |  |  | Zinc Finger Reactivity RFU/ min ([2]; Table 10): 2.2 RFU/ min
CC(=O)NS(=O)(=O)c1ccc(NC(=O)c2ccccc2SC(=O)CCCCC[n+]2ccccc2)cc1 [Compound 55] | 69.7 | 10.5 |  |  | Zinc Finger Reactivity RFU/ min ([2]; Table 10): 1.9 RFU/ min
CC(=O)NS(=O)(=O)c1ccc(NC(=O)c2ccccc2NC(=O)CCCC[n+]2ccccc2)cc1 [Compound 56] | > 316 | > 316 |  |  | antiviral activity (HIV-1RF; result in words): inactive; Zinc Finger Reactivity RFU/ min ([2]; Table 10): 2.6 RFU/ min
CC(=O)NS(=O)(=O)c1ccc(NC(=O)c2ccccc2SC(=O)CCCC[n+]2cccc(Cl)c2)cc1 [Compound 57] | 264 | 54 |  |  | Zinc Finger Reactivity RFU/ min ([2]; Table 10): 0.2 RFU/ min
